The results in this text go back to patent US9187459B2, “Quinazoline-7-ether compounds and methods of use” (NewGen Therapeutics, Inc., priority 2011, dated 2015).

Each structure is given as a SMILES string.

The test system of one data set is NCI-N87 xenograft. As to the kind of experiment: In vivo efficacy in NCI-N87 xenograft mouse model. As to the method:
NCI-N87 cell line was purchased from ATCC (American Type Culture Collection) and was cultured in RPMI1640+10% FBS+1% P/S antibiotics.
Male Balb/c nude mice, 6-8 week, 18±2 g (supplier: Shanghai SLAC Laboratory Animal Co. Ltd.) were used for the experiment. The purchased mice were adapted to the environment for 7 days before use, and were housed at 22-25° C. with humidity 40-70%, and light cycle with fluorescent light for 12-hour light (8:00-20:00) 12-hour dark. The mice have free access to food and water.
The cancer cells (NCI-N87) were implanted subcutaneous into the nude mice (right flank) with 5.0×10^6 cells in 0.1 ml PBS (50 mice). When the tumor size reaches a volume of 200 (150-200) mm^3, the tumor-bearing nude mice were randomly assigned into groups (10 mice/group), one group was served as vehicle, one group was administrated with Lapatinib ditosylate monoydrate (80 mg/kg, free base of Lapatinib, not salt, p.o. bid). The other two groups were administrated with NT112 (15 and 30 mg/kg, p.o. q.d, respectively). The administration period lasted for 4 weeks.
The mice were monitored twice daily for appearance and behavior, and for signs of morbidity and/or mortality. The tumor volume was measured twice a week, and the body weight was measured immediately before measuring the tumor volume throughout the whole study.
At end of the experiment (compound administration for four weeks), all the tumor-bearing mice were sacrificed by cervical dislocation under deep anesthesia. The tumor mass was resected, and weighed.
Tumor sizes were measured twice weekly in two dimensions using a caliper, and the volume was expressed in mm^3 using the formula: V=½×a×b^2 where a and b are the long and short diameters of the tumor, respectively. The tumor mass was weighed at the end of the experiment after harvested. V=½×a×b^2 (a, b is maximum and minimum diameters respectively). RTV(Relative Tumor Volume)=Vt/Vo • Vo is the tumor volume when the test article is initial administrated • Vt is the tumor volume of every measurement day after test article administration T/C(%)=TRTV/CRTV×100% • TRTV: RTV of test article-treatment group; CRTV: RTV of control group Inhibition rate (%)=(average tumor volume of control group−average cancer volume of test article treatment group)/average tumor volume of control group×100%

The nature of data set [1]: Pharmacokinetics studies in rats. The data set is classed as in vivo, Sprauge Dawley rats. The conditions noted are these: for bioavailability / AUC(0-inf) / AUC(0-t) / Cmax / clearance / half-life / Vd: male, Sprague-Dawley; for bioavailability: plasma, rat; for AUC(0-inf) / AUC(0-t) / Cmax / clearance / half-life / Vd / CL / Vz: rat plasma; for Vd: read-out: Vz. The method, then: (§1) The test article each was dissolved in 10% DMSO and 90% of (40% HP-β-CD in deionized water) to yield concentration at 0.4 mg/mL for intravenous administration, and 1 mg/mL for oral administration.
(§2) Method development and plasma samples analysis were performed by Analytical Sciences Division of the Testing Facility by means of LC-MS/MS. The analytical results were confirmed using quality control samples for intra-assay variation (within day variation). The accuracy of >66% of the quality control samples was between 80-120% of the known value(s).
Each group consisted 3 male Sprauge Dawley rats (7-8 week old, 200-300 g body weight). The test articles were administered by a single bolus intravenous injection via the lateral tail vein or via oral gavage.
Blood samples (approximately 300 μl) were collected via retro-orbital puncture after anaesthesia using mixed gas (CO2:O2=7:3) into tubes containing EDTA-K3 anticoagulant at appropriate time points. 10 time points (Groups 1-2): Pre-dose and post-dose at 5 min, 15 min, 30 min, 1 h, 2 h, 4 h, 6 h, 8 h and 24 h.
The PK blood samples were processed and analyzed using the same methods as in Example 10.

The nature of data set [2]: Pharmacokinetics studies in mice. The data set is classed as in vivo, CD-1 mice. As to conditions: for bioavailability: CD-1, plasma, mouse; for AUC(0-inf) / AUC(0-t) / Cmax / half-life / MRT: CD-1, mouse plasma. The method, then:
as §1, §2
Each group is consisted 30 CD-1 mice (supplied by Sino-British SIPPR/BK Lab. Animal Ltd., Co, Shanghai), 5-8 week old, 20-28 g body weight. The test articles were administered by a single bolus intravenous injection or via oral gavage.
Any animals in poor health were identified for further monitoring or possible euthanasia.
Blood samples (at least 300 μL/sample) were collected via cardiac puncture after euthanasia by carbon dioxide inhalation at appropriate time points for determination of the plasma concentrations of the test article. Samples were placed in tubes containing K3-EDTA and stored on ice until centrifuged.
Three mice in each group were used for blood collection at each of the 10 time points (Groups 1-10): Pre-dose and post-dose at 5 min, 15 min, 30 min, 1 h, 2 h, 4 h, 6 h, 8 h and 24 h.
The PK blood samples were centrifuged at approximately 8000 rpm for 6 minutes at 2-8° C. and the resulting plasma were separated and stored frozen at approximately −80° C. (following separation, the plasma may be initially placed on ice prior to being stored in the −80° C. freezer). All the plasma samples were labeled with detailed information such as study number, animal number, matrix, time points of collection and date of collection.
Standard set of parameters including Area Under the Curve (AUC(0-t) and AUC(0-∞)), elimination half-live (T1/2), maximum plasma concentration (Cmax), time to reach maximum plasma concentration (Tmax), clearance (CL), and volume of distribution (Vz) were calculated using noncompartmental analysis modules in FDA certified pharmacokinetic program WinNonlin Professional v5.2 (Pharsight, USA) by the Study Director. Furthermore, the Bioavailability was estimated using the following formula:
• AUC(0-t) Area under the curve from the time of dosing to the last measurable concentration • AUC(0-∞) Area under the curve from the time of dosing extrapolated to infinity, based on the last observed concentration • CL Total body clearance, CL=Dose/AUC • Cmax Maximum observed concentration, occurring at Tmax • F Bioavailability • MRT(0-∞) Mean residence time from the time of dosing to infinity • Tmax Time of maximum observed concentration • T1/2 Terminal half-life=ln(2)λz • Vz Volume of distribution based on the terminal phase

For `CS(=O)(=O)CCNCc1ccc(-c2ccc3ncnc(Nc4ccc(OCc5cccc(F)c5)c(Cl)c4)c3c2)o1` [Lapatinib, reference compound], in the data set on NCI-N87 xenograft (day 7, 80 mg/kg p.o. bid), the “RTV T/C” value came out at 31% and the “tumor growth inhibition rate” value is reported as 69%. The compound further returned a tumor inhibition rate with NCI-N87 xenograft (day 28 (last day of the study), 80 mg/kg p.o. bid) of 92.9%.
A word on the bioavailability: it is the share of a dose that reaches the circulation, judged against a reference dose that is usually intravenous. Lower therefore signals little systemic uptake. Broadly, the AUC(0-inf) is total exposure, with the tail of the curve extrapolated. One may read the AUC(0-t) as exposure summed from dosing to a finite time, without extrapolation to infinity. The term Cmax denotes the maximum level reached in the sampled fluid or tissue. As a reminder, the clearance is the volume of plasma or blood freed of the substance per unit of time. Higher therefore signals a high capacity for elimination. Usually half-life stands for the time in which the quantity being followed falls by half. As to `CN(C)C/C=C/C(=O)Nc1cc2c(Nc3ccc(F)c(Cl)c3)ncnc2cc1OC[C@H]1[C@@H]2COC[C@@H]21` [NT112], in data set [1] (IV 1 mg/Kg (reference)), the bioavailability came out at 100%. Moreover, the bioavailability in data set [1] (po, 5 mg/kg) was 68%. Besides, in data set [1] (IV 1 mg/Kg), the AUC(0-inf) amounted to 248 ng·h/mL, the AUC(0-t) is 220 ng·h/mL, the Cmax was found to be 59.3 ng/mL and the clearance is 67.2 mL/min/kg. Besides, in data set [1] (IV 1 mg/Kg), the half-life was 363 min and the Vd amounted to 10.6 L/kg. Besides, in data set [1] (PO 5 mg/Kg), the AUC(0-inf) was 843 ng·h/mL, the AUC(0-t) was found to be 434 ng·h/mL, the Cmax is 74.9 ng/mL and the half-life is 1200 min. In data set [1] (PO 5 mg/Kg), this compound displayed a CL of 5.93 L/h/kg and a Vz of 51.55 L/kg. Besides, the “exposure and oral bioavailability with oral administration, compared to afatinib” value in data set [1] (oral administration) is “higher exposure and better oral bioavailability”. In addition, in data set [2] (IV 1 mg/Kg (reference)), the bioavailability is 100%. In data set [2] (PO 5 mg/Kg), this compound gave a bioavailability of 49.7%, an AUC(0-inf) of 1470 ng·h/mL, an AUC(0-t) of 1420 ng·h/mL and a Cmax of 272 ng/mL. Also, the half-life in data set [2] (PO 5 mg/Kg) was 666 min. In data set [2] (IV 1 mg/Kg), this compound showed an AUC(0-inf) of 592 ng·h/mL, an AUC(0-t) of 575 ng·h/mL, a Cmax of 236 ng/mL and a half-life of 266 min. Further, the side effect result with NCI-N87 xenograft (15 mg/kg po qd, 4 weeks) is listed as “without predefined side effect”. For the same compound, in the data set with NCI-N87 xenograft (30 mg/kg p.o. qd, 7 days/week, onset day 3, maximal day 11, dosing stopped, recovered by day 28), the body weight change entry is on record as “led to body weight loss”. In the data set with NCI-N87 xenograft (day 7, 15 mg/kg po qd), the “RTV T/C” value is recorded as below 30% and the tumor growth inhibition was above 70%. For the same compound, in the data set on NCI-N87 xenograft (day 7, 30 mg/kg po qd), the “RTV T/C” value is below 30% and the tumor growth inhibition is on record as above 70%.
Usually MRT stands for the average time that molecules of a dose stay in the body. In data set [1] (IV 1 mg/Kg (reference)), `CN(C)C/C=C/C(=O)Nc1cc2c(Nc3ccc(F)c(Cl)c3)ncnc2cc1O[C@H]1CCOC1` [afatinib, reference compound] registered a bioavailability of 100%. This compound had a bioavailability in data set [1] (po, 5 mg/kg) of 44.7%. In data set [1] (IV 1 mg/Kg), this compound gave an AUC(0-inf) of 147 ng·h/mL, an AUC(0-t) of 137 ng·h/mL, a maximum concentration (Cmax) of 55.6 ng/mL and a clearance of 114 mL/min/kg. In data set [1] (IV 1 mg/Kg), the half-life is 307 min and the Vd turned out to be 15.2 L/kg. In data set [1] (PO 5 mg/Kg), the AUC(0-inf) was 328 ng·h/mL, the AUC(0-t) amounted to 215 ng·h/mL, the Cmax worked out at 49.2 ng/mL and the half-life is 661 min. Moreover, in data set [1] (PO 5 mg/Kg), the CL stood at 15.26 L/h/kg and the Vz stood at 73.02 L/kg. Moreover, the bioavailability in data set [2] (IV 1 mg/Kg (reference)) is 100%. In data set [2] (PO 5 mg/Kg), this compound displayed a bioavailability of 62%, an AUC(0-t) of 167 ng·h/mL, a Cmax of 17.6 ng/mL and a mean residence time MRT of 9.3 h. For the same compound, in data set [2] (IV 1 mg/Kg), the AUC(0-t) is 54 ng·h/mL, the Cmax was 109 ng/mL and the MRT came out at 1.6 h.
